These antisense oligonucleotides have a phosphorothioate backbone; sugars and methylation of C are not fully specified.
Each sequence was assayed against ETS2. Conditions: ASO.
Further: test concentration or dose not given here.

| Sequence | remaining target (mRNA or protein) (fraction of control) |
| --- | --- |
| GTCCATATTCTTGATTCC | ≥ 1 |
| GTGCCAAAACCTAATGTA | 0.66 |
| TAAGGCTTGACTCATCAC | ≥ 1 |
| TCGTAATAGTAGCGTAAG | 0.85 |
| TGCCAGCTCCAGAAAGCG | 0.84 |
| TGGCTTATTGAGGCAGAG | 0.94 |
| TGTTCCCAGAGAATGTCA | 0.63 |
| TTCTTTGGAATGCCCAGG | 0.93 |
| TTGCAGTGTTTGCTCTTC | ≥ 1 |
| TTTCCTCTTTCCCCACCG | ≥ 1 |
| TTTCTTGGTTTTCTTTGA | ≥ 1 |

What follows are sequences tested against GNAI1. Conditions: ASO.

| Sequence | remaining target (mRNA or protein) (fraction of control) |
| --- | --- |
| AAACTAAAGTCATAAATA | ≥ 1 |
| AACCAGGTCGTAGTCACT | 0.45 |
| AATCCTAAGTTGCCACTC | 0.4 |
| ACTGCTTTGTATTGTTTA | 0.94 |
| AGAACAACTTTGGTCAAG | 0.88 |
| AGCCCTAATGATAGCAAT | 0.33 |
| AGTCTATCTTCAACCTCC | 0.92 |
| ATAAAGCCTTCTTCAGCA | 0.78 |
| ATTCAAATAGTATGCTGC | ≥ 1 |
| ATTTCCTTTGTGTCCTTT | 0.41 |
| CAAAGCCATCACCCTAAA | 0.43 |
| CAAGTCATTCAAATAGTA | ≥ 1 |
| CAATTCCTGTAGTTTTCA | 0.8 |
| CACATTCTTAGTATCTGT | 0.85 |
| CATGAACATAAATAAAGC | ≥ 1 |
| CCACTATCTTTCCACAAT | 0.84 |
| CCGGGCTGAGTCACCAAA | 0.31 |
| CCTTCTGTTACTTTCAGT | 0.75 |
| CTCCTCTTCTGAATAACC | 0.79 |
| CTTTTACCAGATTCACCA | 0.96 |

| Sequence | remaining target (mRNA or protein) (fraction of control) |
| --- | --- |
| GCATTCGGTTCATTTCTT | 0.58 |
| GTATAATGGATGTATCTG | 0.86 |
| GTTGAGTCGGGATGTAAT | ≥ 1 |
| TAAAAGAGACCACAATCT | 0.81 |
| TAATAGTCTGTCATTCAG | 0.95 |
| TAGATAAGGGCTGTAATG | 0.87 |
| TCACCAAAGTCTATCTTC | ≥ 1 |
| TCACCCTAAAATCCTAAG | ≥ 1 |
| TCATCTTACTCCGCTCCA | 0.66 |
| TCATTTCTTCATCTTCAG | ≥ 1 |
| TCCCCATAGCCCTAATGA | 0.21 |
| TCTTTTATTGAGGTCTTC | ≥ 1 |
| TGATCCAAAGGCAGGTGT | 0.27 |
| TGTGTCCTTTCTTTTATT | 0.63 |
| TTAAGAACATTTCAATAA | 0.99 |
| TTATGTTATTTCCAAAGC | 0.87 |
| TTCAACCTCCCCATAGCC | 0.81 |
| TTCTGTCCAAGTCATTCA | 0.64 |
| TTTCCACAATCTCTTTAT | 0.92 |
| TTTGAAAGTAAAATGGGT | ≥ 1 |

Each sequence was assayed against MAP2K7. Conditions: ASO.

| Sequence | remaining target (mRNA or protein) (fraction of control) |
| --- | --- |
| ACTCAGGTCTTCGCCATGAC | 0.76 |

These sequences were tested against PYGL. Conditions: ASO.

| Sequence | remaining target (mRNA or protein) (fraction of control) |
| --- | --- |
| GAAGTCCTTGAATACTTTAG | 0.4 |
| GCAGGCAGCAAGTCTCCCAA | 0.29 |
| GCCGTATCCATAGGCTGCAA | ≥ 1 |
| GCGCGAAGTAGTAGTCGCGG | 0.8 |
| GGGCGGGACTTCTCCCAAGG | 0.79 |
| GGTGTTGACAGTGTTATTCA | 0.56 |
| TACCTGCCATCCATCTCGGA | 0.15 |
| TCATATTGCCTGTCCCCGAG | 0.18 |
| TCATGATAAAATAGCATGTT | ≥ 1 |
| TCCAACATTAAAGTCTCTGA | 0.62 |
| TCCAGCGCCCCACCAGGTGG | 0.44 |
| TCCCGGTGTTGGTGTGTTCT | 0.63 |
| TCTGTCAGCGGTTCGCCCAT | 0.69 |
| TGCCACGTTCTCCACGCCCA | 0.18 |
| TGGAGCCAAACTTGGAGGCT | 0.32 |
| TTCCAACCATAGGGTCATTG | 0.27 |
| TTCTGGTTGAGCTCCCATGC | 0.52 |
| TTGTCAATTTGATCAATGAC | 0.62 |

— the OligoGym collection
